For 21 compounds, IC50 results are on record in patent US8148391B2 (Cephalon, Inc., priority 2006, dated 2012).

Molecules are shown by their SMILES.

Experiment [1] has as its target T1, baculovirus-expressed ALK (Homo sapiens, UniProt Q9UM73).
T1 construct: host or cells: baculovirus expression system
In words: ALK Kinase Assay (ELISA-type, time-resolved fluorescence). The following applies: 1 μM ATP (Km level); read-out: ALK Activity (ALK Kinase Inhibition, IC50). Format: biochemical. An outline of the steps: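 Wells were coated with phospholipase C-γ at 10 μg/mL in Tris-buffered saline. Adding 30 ng/ml enzyme started the reaction, which ran at 37° C for 15 minutes before Eu-N1 PT66 antibody detection. Percent inhibition versus log10 concentration gave IC50 by variable-slope fit.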

Experiment [2] deals with T2, c-Met (cytoplasmic domain) (Homo sapiens, UniProt P08581).
T2 construct: 10 ng/mL c-Met (cytoplasmic domain, Invitrogen Corporation #PV3143); purchased Invitrogen Corporation PV3143
T2 sequence (P08581 956-1390 limits assumed): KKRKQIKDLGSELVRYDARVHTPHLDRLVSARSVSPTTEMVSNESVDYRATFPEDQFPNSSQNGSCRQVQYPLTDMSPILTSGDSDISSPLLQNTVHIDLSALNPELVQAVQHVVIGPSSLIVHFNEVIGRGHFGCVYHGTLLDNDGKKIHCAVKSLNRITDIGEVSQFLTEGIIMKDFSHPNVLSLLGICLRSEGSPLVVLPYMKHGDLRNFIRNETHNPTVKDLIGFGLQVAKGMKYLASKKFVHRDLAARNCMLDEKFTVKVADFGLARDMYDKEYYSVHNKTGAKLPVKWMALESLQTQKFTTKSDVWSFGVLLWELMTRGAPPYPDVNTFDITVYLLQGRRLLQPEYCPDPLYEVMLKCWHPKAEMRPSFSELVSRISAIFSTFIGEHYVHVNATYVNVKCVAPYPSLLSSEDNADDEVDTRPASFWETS
Nature of the experiment: c-Met Kinase Assay (same methods as for ALK, with modifications). The following applies: 1 μM ATP (Km level); read-out: cMet Activity (c-Met Kinase Inhibition, IC50). Format: biochemical. The procedure, abridged: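 Steps: coat wells with PLC-γ (10 μg/mL, Tris-buffered saline); add 10 ng/mL c-Met cytoplasmic domain to initiate; incubate 15 min, 37° C; detect phosphoproduct via Eu-N1 PT66 antibody.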

T1 sequence (Q9UM73 19-1620): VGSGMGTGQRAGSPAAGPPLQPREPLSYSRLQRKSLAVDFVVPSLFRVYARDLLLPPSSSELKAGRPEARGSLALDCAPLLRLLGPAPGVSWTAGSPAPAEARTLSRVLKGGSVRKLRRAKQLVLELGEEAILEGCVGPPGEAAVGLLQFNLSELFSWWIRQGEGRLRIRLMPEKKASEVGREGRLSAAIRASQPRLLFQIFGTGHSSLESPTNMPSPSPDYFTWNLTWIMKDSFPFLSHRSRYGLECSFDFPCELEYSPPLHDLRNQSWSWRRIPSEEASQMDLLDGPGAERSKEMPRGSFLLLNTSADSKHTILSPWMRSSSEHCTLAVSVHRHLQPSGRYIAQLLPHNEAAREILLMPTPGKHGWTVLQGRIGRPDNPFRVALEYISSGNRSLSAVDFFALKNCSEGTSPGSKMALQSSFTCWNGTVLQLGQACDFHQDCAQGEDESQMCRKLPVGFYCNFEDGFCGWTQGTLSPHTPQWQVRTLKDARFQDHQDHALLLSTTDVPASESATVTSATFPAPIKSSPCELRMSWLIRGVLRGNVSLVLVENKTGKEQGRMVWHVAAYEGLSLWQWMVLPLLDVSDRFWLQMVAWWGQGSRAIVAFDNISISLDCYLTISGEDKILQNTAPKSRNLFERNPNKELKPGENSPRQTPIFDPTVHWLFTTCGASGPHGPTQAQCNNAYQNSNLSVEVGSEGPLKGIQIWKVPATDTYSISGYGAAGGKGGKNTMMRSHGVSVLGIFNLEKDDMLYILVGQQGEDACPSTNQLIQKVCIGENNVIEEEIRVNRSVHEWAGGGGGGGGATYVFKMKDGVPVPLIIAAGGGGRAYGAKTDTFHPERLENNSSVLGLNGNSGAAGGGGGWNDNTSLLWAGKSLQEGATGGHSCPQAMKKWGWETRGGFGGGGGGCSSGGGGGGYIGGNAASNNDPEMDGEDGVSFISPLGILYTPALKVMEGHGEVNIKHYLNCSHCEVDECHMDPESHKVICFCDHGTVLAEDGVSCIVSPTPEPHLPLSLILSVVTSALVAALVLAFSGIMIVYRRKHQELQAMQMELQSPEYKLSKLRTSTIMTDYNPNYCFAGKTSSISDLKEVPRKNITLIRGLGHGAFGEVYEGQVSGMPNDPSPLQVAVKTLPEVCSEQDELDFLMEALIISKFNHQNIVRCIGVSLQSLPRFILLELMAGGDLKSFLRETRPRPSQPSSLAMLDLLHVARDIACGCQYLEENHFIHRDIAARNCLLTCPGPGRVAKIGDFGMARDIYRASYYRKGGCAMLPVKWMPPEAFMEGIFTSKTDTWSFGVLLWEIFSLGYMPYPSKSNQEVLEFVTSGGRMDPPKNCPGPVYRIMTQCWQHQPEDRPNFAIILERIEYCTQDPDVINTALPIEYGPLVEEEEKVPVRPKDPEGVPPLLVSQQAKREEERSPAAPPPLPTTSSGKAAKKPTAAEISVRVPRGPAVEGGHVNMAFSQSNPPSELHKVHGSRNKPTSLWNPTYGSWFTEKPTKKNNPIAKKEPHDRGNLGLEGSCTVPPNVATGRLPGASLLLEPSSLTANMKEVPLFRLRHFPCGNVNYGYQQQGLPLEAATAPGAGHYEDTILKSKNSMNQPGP

Regarding `COc1ccc(Nc2nc(Nc3cc4c(cc3OC)CCN(CC(=O)N(C)C)CC4)ncc2Cl)c(N2CCOCC2)c1` [Example 829, 2-{7-[5-Chloro-4-(4-methoxy-2-morpholin-4-yl-phenylamino)-pyrimidin-2-ylamino]-8-methoxy-1,2,4,5-tetrahydro-benzo[d]azepin-3-yl}-N,N-dimethyl-acetamide], the IC50 in experiment [1] is under 100 nM; in experiment [2], over 10000 nM.
For the compound `COc1cc2c(cc1Nc1ncc(Cl)c(Nc3ccc(C)cc3S(=O)(=O)N(C)C)n1)CCN(CC(=O)N(C)C)CC2` [Example 830, 2-{7-[5-Chloro-4-(2-dimethylsulfamoyl-4-methyl-phenylamino)-pyrimidin-2-ylamino]-8-methoxy-1,2,4,5-tetrahydro-benzo[d]azepin-3-yl}-N,N-dimethyl-acetamide], the IC50 in experiment [1] was under 100 nM; in experiment [2], over 10000 nM.
Take `COc1cc2c(cc1Nc1ncc(Cl)c(Nc3ccc(F)cc3S(=O)(=O)N(C)C)n1)CCN(CC(=O)N(C)C)CC2` [Example 831, 2-{7-[5-Chloro-4-(2-dimethylsulfamoyl-4-fluoro-phenylamino)-pyrimidin-2-ylamino]-8-methoxy-1,2,4,5-tetrahydro-benzo[d]azepin-3-yl}-N,N-dimethyl-acetamide]: the IC50 in experiment [1] is under 100 nM; in experiment [2], over 10000 nM.
For `COc1cc2c(cc1Nc1ncc(Cl)c(Nc3ccc(Cl)cc3S(=O)(=O)N(C)C)n1)CCN(CC(=O)N(C)C)CC2` [Example 832, 2-{7-[5-Chloro-4-(4-chloro-2-dimethylsulfamoyl-phenylamino)-pyrimidin-2-ylamino]-8-methoxy-1,2,4,5-tetrahydro-benzo[d]azepin-3-yl}-N,N-dimethyl-acetamide], the IC50 in experiment [1] is under 100 nM; in experiment [2], over 10000 nM.
The like results for `COc1cc2c(cc1Nc1ncc(Cl)c(Nc3ccc(N(C)C)cc3S(=O)(=O)N(C)C)n1)CCN(CC(=O)N(C)C)CC2` [Example 833, 2-{7-[5-Chloro-4-(4-dimethylamino-2-dimethylsulfamoyl-phenylamino)-pyrimidin-2-ylamino]-8-methoxy-1,2,4,5-tetrahydro-benzo[d]azepin-3-yl}-N,N-dimethyl-acetamide] were, in that order, under 100 nM and over 10000 nM.
The like results for `COc1cc2c(cc1Nc1ncc(Cl)c(Nc3ccc(N4CCOCC4)cc3S(=O)(=O)N(C)C)n1)CCN(CC(=O)N(C)C)CC2` [Example 834, 2-{7-[5-Chloro-4-(2-dimethylsulfamoyl-4-morpholin-4-yl-phenylamino)-pyrimidin-2-ylamino]-8-methoxy-1,2,4,5-tetrahydro-benzo[d]azepin-3-yl}-N,N-dimethyl-acetamide] were, in that order, under 100 nM and over 10000 nM.
Consider `COc1cc2c(cc1Nc1ncc(Cl)c(Nc3ccc(N4CCN(C5CCN(C)CC5)CC4)cc3OC)n1)CCN(CC(=O)N(C)C)CC2` [Example 835, 2-[7-(5-Chloro-4-{2-methoxy-4-[4-(1-methyl-piperidin-4-yl)-piperazin-1-yl]-phenylamino}-pyrimidin-2-ylamino)-8-methoxy-1,2,4,5-tetrahydro-benzo[d]azepin-3-yl]-N,N-dimethyl-acetamide], for which the results for the 50% inhibitory concentration (IC50) in experiment [1] and in experiment [2] were under 100 nM and over 10000 nM, respectively.
As for `COc1cc2c(cc1Nc1ncc(Cl)c(Nc3ccccc3S(=O)(=O)N3CCOCC3)n1)CCN(CC(=O)N(C)C)CC2` [Example 836, 2-(7-{5-Chloro-4-[2-(morpholine-4-sulfonyl)-phenylamino]-pyrimidin-2-ylamino}-8-methoxy-1,2,4,5-tetrahydro-benzo[d]azepin-3-yl)-N,N-dimethyl-acetamide], the IC50 is under 100 nM in experiment [1] and over 10000 nM in experiment [2].
As to `COc1cc2c(cc1Nc1ncc(Cl)c(Nc3ccccc3S(=O)(=O)N3CCN(C)CC3)n1)CCN(CC(=O)N(C)C)CC2` [Example 837, 2-(7-{5-Chloro-4-[2-(4-methyl-piperazine-1-sulfonyl)-phenylamino]-pyrimidin-2-ylamino}-8-methoxy-1,2,4,5-tetrahydro-benzo[d]azepin-3-yl)-N,N-dimethyl-acetamide], the IC50 in experiment [1] is under 100 nM; in experiment [2], over 10000 nM.
`COCC(COC)N1CCc2cc(Nc3ncc(Cl)c(Nc4ccc(Cl)cc4S(=O)(=O)N(C)C)n3)c(OC)cc2CC1` [Example 838, 5-Chloro-2-{5-chloro-2-[8-methoxy-3-(2-methoxy-1-methoxymethyl-ethyl)-2,3,4,5-tetrahydro-1H-benzo[d]azepin-7-ylamino]-pyrimidin-4-ylamino}-N,N-dimethyl-benzenesulfonamide]: the concentration for half-maximal inhibition (IC50) in experiment [1] is under 100 nM; in experiment [2] it was over 10000 nM.
For `COCCN1CCc2cc(Nc3ncc(Cl)c(Nc4ccc(Cl)cc4S(=O)(=O)N(C)C)n3)c(OC)cc2CC1` [Example 839, 5-Chloro-2-{5-chloro-2-[8-methoxy-3-(2-methoxy-ethyl)-2,3,4,5-tetrahydro-1H-benzo[d]azepin-7-ylamino]-pyrimidin-4-ylamino}-N,N-dimethyl-benzenesulfonamide], the IC50 in experiment [1] was under 100 nM; in experiment [2], over 10000 nM.
`COc1cc2c(cc1Nc1ncc(Cl)c(Nc3ccc(Cl)cc3S(=O)(=O)N(C)C)n1)CCN(CCO)CC2` [Example 840, 5-Chloro-2-{5-chloro-2-[3-(2-hydroxy-ethyl)-8-methoxy-2,3,4,5-tetrahydro-1H-benzo[d]azepin-7-ylamino]-pyrimidin-4-ylamino}-N,N-dimethyl-benzenesulfonamide]: the IC50 was under 100 nM in experiment [1] and over 10000 nM in experiment [2].
On to `COc1cc2c(cc1Nc1ncc(Cl)c(Nc3ccc(Cl)cc3S(=O)(=O)N(C)C)n1)CCN(CC(=O)N1CCOCC1)CC2` [Example 841, 5-Chloro-2-{5-chloro-2-[8-methoxy-3-(2-morpholin-4-yl-2-oxo-ethyl)-2,3,4,5-tetrahydro-1H-benzo[d]azepin-7-ylamino]-pyrimidin-4-ylamino}-N,N-dimethyl-benzenesulfonamide], for which the values for the half-inhibitory concentration (IC50) in experiment [1] and in experiment [2] were under 100 nM and over 10000 nM, respectively.
As to `COc1cc2c(cc1Nc1ncc(Cl)c(Nc3ccc(Cl)cc3S(=O)(=O)N(C)C)n1)CCN(CC(=O)N1CCN(C)CC1)CC2` [Example 842, 5-Chloro-2-(5-chloro-2-{8-methoxy-3-[2-(4-methyl-piperazin-1-yl)-2-oxo-ethyl]-2,3,4,5-tetrahydro-1H-benzo[d]azepin-7-ylamino}-pyrimidin-4-ylamino)-N,N-dimethyl-benzenesulfonamide], the IC50 in experiment [1] is under 100 nM; in experiment [2] it was over 10000 nM.
For `COc1cc2c(cc1Nc1ncc(Cl)c(Nc3ccc(C(F)(F)F)cc3S(=O)(=O)N(C)C)n1)CCN(CC(=O)N(C)C)CC2` [Example 843, 2-{7-[5-Chloro-4-(2-dimethylsulfamoyl-4-trifluoromethyl-phenylamino)-pyrimidin-2-ylamino]-8-methoxy-1,2,4,5-tetrahydro-benzo[d]azepin-3-yl}-N,N-dimethyl-acetamide] the same measures were under 100 nM and over 10000 nM.
Turning to `COCC(COC)N1CCc2cc(Nc3ncc(Cl)c(Nc4ccccc4S(=O)(=O)N4CCCC4)n3)c(OC)cc2CC1` [Example 844, 5-Chloro-N*2*-[8-methoxy-3-(2-methoxy-1-methoxymethyl-ethyl)-2,3,4,5-tetrahydro-1H-benzo[d]azepin-7-yl]-N*4*-[2-(pyrrolidine-1-sulfonyl)-phenyl]-pyrimidine-2,4-diamine], the figures for the IC50 in experiment [1] and in experiment [2] were under 100 nM and 1000 to 10000 nM, respectively.
Turning to `COc1cc2c(cc1Nc1ncc(Cl)c(Nc3ccccc3S(=O)(=O)N3CC[C@@H](N(C)C)C3)n1)CCN(CC(=O)N(C)C)CC2` [Example 845, 2-(7-{5-Chloro-4-[2-((R)-3-dimethylamino-pyrrolidine-1-sulfonyl)-phenylamino]-pyrimidin-2-ylamino}-8-methoxy-1,2,4,5-tetrahydro-benzo[d]azepin-3-yl)-N,N-dimethyl-acetamide], the IC50 is under 100 nM in experiment [1] and over 10000 nM in experiment [2].
Turning to `COc1cc2c(cc1Nc1ncc(Cl)c(Nc3ccccc3S(=O)(=O)N3CC[C@H](N(C)C)C3)n1)CCN(CC(=O)N(C)C)CC2` [Example 846, 2-(7-{5-Chloro-4-[2-((S)-3-dimethylamino-pyrrolidine-1-sulfonyl)-phenylamino]-pyrimidin-2-ylamino}-8-methoxy-1,2,4,5-tetrahydro-benzo[d]azepin-3-yl)-N,N-dimethyl-acetamide], the IC50 in experiment [1] is under 100 nM; in experiment [2] it was over 10000 nM.
As to `COc1cc2c(cc1Nc1ncc(Cl)c(NC3(CC(N)=O)CCCCC3)n1)CCN(CC(=O)N(C)C)CC2` [Example 847, 2-{1-[5-Chloro-2-(3-dimethylcarbamoylmethyl-8-methoxy-2,3,4,5-tetrahydro-1H-benzo[d]azepin-7-ylamino)-pyrimidin-4-ylamino]-cyclohexyl}-acetamide], the IC50 in experiment [1] is 100 to 1000 nM; in experiment [2], over 10000 nM.
Take `COCC(COC)N1CCc2cc(Nc3ncc(Cl)c(NC4(CC(N)=O)CCCCC4)n3)c(OC)cc2CC1` [Example 848, 2-(1-{5-Chloro-2-[8-methoxy-3-(2-methoxy-1-methoxymethyl-ethyl)-2,3,4,5-tetrahydro-1H-benzo[d]azepin-7-ylamino]-pyrimidin-4-ylamino}-cyclohexyl)-acetamide]: the results for the IC50 in experiment [1] and in experiment [2] were 100 to 1000 nM and over 10000 nM, respectively.
Regarding `COc1cc2c(cc1Nc1ncc(Cl)c(NC3(CC(N)=O)CCCCC3)n1)CCN(CCO)CC2` [Example 849, 2-(1-{5-Chloro-2-[3-(2-hydroxy-ethyl)-8-methoxy-2,3,4,5-tetrahydro-1H-benzo[d]azepin-7-ylamino]-pyrimidin-4-ylamino}-cyclohexyl)-acetamide], the IC50 in experiment [1] is under 100 nM; in experiment [2], over 10000 nM.
